Values joined by “and” are separate entries in the source; they are usually repeats but may differ in a detail not shown here. Equal values may be shown once.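 Where inhibition never reached the appropriate level, the endpoint shown equals the highest concentration tested. Otherwise, values were interpolated linearly from a five-concentration, 48-hour dose response in 96-well plates. GI50 marks 50% less growth. The concentration for full growth arrest is given as TGI.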
How the values were obtained:
Experiment in all cases: NCI tumour cell line growth inhibition, 48 h
COLO 205 colon = tested on: COLO 205 colon
OVCAR-3 ovarian = tested on: OVCAR-3 ovarian
RPMI-8226 leukemia = tested on: RPMI-8226 leukemia
UACC-62 melanoma = tested on: UACC-62 melanoma
MDA-MB-435 = tested on: MDA-MB-435
SF-295 CNS = tested on: SF-295 CNS
HS 578T breast = tested on: HS 578T breast
K-562 leukemia = tested on: K-562 leukemia
SK-OV-3 ovarian = tested on: SK-OV-3 ovarian
SK-MEL-2 melanoma = tested on: SK-MEL-2 melanoma

`Fc1cccc(Cl)c1Cn1c(-c2c(F)cccc2Cl)nc2ccccc21` was tested. Which GI50 (COLO 205 colon) did it give?
The GI50 was 17.5 µM.

And the TGI (COLO 205 colon)?
Its TGI is over 100 µM.

What about the GI50 (OVCAR-3 ovarian) of the same compound?
The GI50 was 17.4 µM.

And the TGI (OVCAR-3 ovarian)?
Its TGI is 60.2 µM.

What about the GI50 (RPMI-8226 leukemia) of the same compound?
The GI50 was 13.3 µM.

What about the TGI (RPMI-8226 leukemia) of the same compound?
Its TGI is 60 µM.

And the GI50 (UACC-62 melanoma)?
The GI50 was 12.8 µM.

What about the TGI (UACC-62 melanoma) of the same compound?
The TGI was 29.8 µM.

What about the GI50 (MDA-MB-435) of the same compound?
The GI50 was 20.1 µM.

And the TGI (MDA-MB-435)?
The TGI was 61.7 µM.

What about the GI50 (SF-295 CNS) of the same compound?
Its GI50 is 16.8 µM.

And the TGI (SF-295 CNS)?
The TGI was 46.8 µM.

What about the GI50 (HS 578T breast) of the same compound?
The GI50 was 21.6 µM.

What about the TGI (HS 578T breast) of the same compound?
The TGI was 65.3 µM.

What about the GI50 (K-562 leukemia) of the same compound?
Its GI50 is 10.1 µM.

And the TGI (K-562 leukemia)?
Its TGI is over 100 µM.

What about the GI50 (SK-OV-3 ovarian) of the same compound?
Its GI50 is 18.4 µM.

And the TGI (SK-OV-3 ovarian)?
Its TGI is 44.6 µM.

For `COc1ccccc1NC(=O)C1=C(C)NC(C)=C(C(=O)Nc2ccccc2OC)C1c1cccc2ccccc12`, which TGI (COLO 205 colon) is on record?
Its TGI is over 100 µM.

And the TGI (OVCAR-3 ovarian)?
The TGI was over 100 µM.

What about the TGI (RPMI-8226 leukemia) of the same compound?
The TGI was over 100 µM.

And the TGI (UACC-62 melanoma)?
Its TGI is over 100 µM.

What about the TGI (SF-295 CNS) of the same compound?
Its TGI is over 100 µM.

What about the TGI (SK-MEL-2 melanoma) of the same compound?
The TGI was over 100 µM.

What about the TGI (K-562 leukemia) of the same compound?
The TGI was over 100 µM.

What about the TGI (SK-OV-3 ovarian) of the same compound?
Its TGI is over 100 µM.

How did the TGI (OVCAR-3 ovarian) turn out when `CCOC(=O)C(=O)Nc1ccccc1OCC` was run?
The TGI was over 100 µM.

And the TGI (RPMI-8226 leukemia)?
The TGI was over 100 µM.

What about the TGI (UACC-62 melanoma) of the same compound?
The TGI was over 100 µM.

And the TGI (SF-295 CNS)?
Its TGI is over 100 µM.

And the TGI (SK-MEL-2 melanoma)?
Its TGI is over 100 µM.

And the TGI (K-562 leukemia)?
Its TGI is over 100 µM.

And the TGI (SK-OV-3 ovarian)?
The TGI was over 100 µM.

With `O=C(Nc1ccc(Nc2ccncc2)cc1)c1ccc(Nc2ccnc3ccc([N+](=O)[O-])cc23)cc1[N+](=O)[O-]` as the compound, how does the GI50 (COLO 205 colon) read?
Its GI50 is 17.5 µM.

What about the TGI (COLO 205 colon) of the same compound?
Its TGI is over 100 µM.

And the GI50 (OVCAR-3 ovarian)?
The GI50 was 24.7 µM.

What about the TGI (OVCAR-3 ovarian) of the same compound?
Its TGI is over 89.5 µM.

What about the GI50 (RPMI-8226 leukemia) of the same compound?
The GI50 was 12.6 µM.

What about the TGI (RPMI-8226 leukemia) of the same compound?
The TGI was 55.3 µM.

And the GI50 (UACC-62 melanoma)?
The GI50 was 11.1 µM.

What about the TGI (UACC-62 melanoma) of the same compound?
Its TGI is 58.8 µM.

And the GI50 (MDA-MB-435)?
The GI50 was 23.3 µM.

What about the TGI (MDA-MB-435) of the same compound?
Its TGI is over 100 µM.

What about the GI50 (SF-295 CNS) of the same compound?
The GI50 was 6.69 µM.

What about the TGI (SF-295 CNS) of the same compound?
Its TGI is 98.3 µM.

And the GI50 (HS 578T breast)?
The GI50 was 0.691 µM.

And the GI50 (K-562 leukemia)?
The GI50 was 36.4 µM.

And the TGI (K-562 leukemia)?
Its TGI is over 100 µM.

What about the GI50 (SK-OV-3 ovarian) of the same compound?
Its GI50 is 19.3 µM.

What about the TGI (SK-OV-3 ovarian) of the same compound?
Its TGI is 40 µM.

Which results are given for `O=C(O)c1cn(C2CC2)c2cc(N3CCNCC3)c(F)cc2c1=O`?
GI50 (COLO 205 colon): > 100 µM; TGI (COLO 205 colon): > 100 µM; GI50 (OVCAR-3 ovarian): > 100 µM; TGI (OVCAR-3 ovarian): > 100 µM; GI50 (RPMI-8226 leukemia): > 100 µM; TGI (RPMI-8226 leukemia): > 100 µM; GI50 (UACC-62 melanoma): > 100 µM; TGI (UACC-62 melanoma): > 100 µM; GI50 (MDA-MB-435): > 100 µM; TGI (MDA-MB-435): > 100 µM; GI50 (HS 578T breast): 42.3 µM; TGI (HS 578T breast): > 100 µM; GI50 (SK-OV-3 ovarian): > 100 µM; TGI (SK-OV-3 ovarian): > 100 µM

For `O=C(Oc1ccc2c(-c3ccccc3)c(C(=O)Nc3ccc(Cl)cc3)c(=O)oc2c1)c1ccccc1`, which TGI (COLO 205 colon) is on record?
The TGI was over 100 µM.

And the TGI (OVCAR-3 ovarian)?
The TGI was over 100 µM.

And the TGI (RPMI-8226 leukemia)?
Its TGI is over 100 µM.

And the TGI (UACC-62 melanoma)?
Its TGI is over 100 µM.

And the TGI (SF-295 CNS)?
The TGI was over 100 µM.

What about the TGI (SK-MEL-2 melanoma) of the same compound?
The TGI was over 100 µM.

And the TGI (K-562 leukemia)?
Its TGI is over 100 µM.

What about the TGI (SK-OV-3 ovarian) of the same compound?
Its TGI is over 100 µM.

For `O=C1C(Br)=C(Br)C(=O)c2ccccc21`, which GI50 (OVCAR-3 ovarian) is on record?
Its GI50 is 17.9 µM and 8.34 µM.

What about the TGI (OVCAR-3 ovarian) of the same compound?
Its TGI is 32.4 µM and 27.7 µM.

What about the TGI (RPMI-8226 leukemia) of the same compound?
The TGI was 10.4 µM.

What about the TGI (UACC-62 melanoma) of the same compound?
The TGI was 31.6 µM and 22.7 µM.

What about the TGI (MDA-MB-435) of the same compound?
Its TGI is 21.8 µM.

And the GI50 (SF-295 CNS)?
Its GI50 is 91.1 µM and 14.6 µM.

And the TGI (SF-295 CNS)?
Its TGI is > 100 µM and 28.6 µM.

And the TGI (HS 578T breast)?
The TGI was over 60.7 µM.

And the TGI (SK-MEL-2 melanoma)?
The TGI was 36.2 µM and 29 µM.

And the TGI (K-562 leukemia)?
The TGI was over 100 µM.

And the GI50 (SK-OV-3 ovarian)?
Its GI50 is 16.1 µM and 5.4 µM.

What about the TGI (SK-OV-3 ovarian) of the same compound?
The TGI was 31.1 µM and 13.2 µM.

Which TGI (COLO 205 colon) does the source give for `ClC1c2ccccc2C2(c3ccccc3)OOC1(c1ccccc1)O2` (stereo unspecified) here?
The TGI was 4.58 µM.

What about the TGI (OVCAR-3 ovarian) of the same compound?
The TGI was 3.3 µM.

What about the TGI (RPMI-8226 leukemia) of the same compound?
The TGI was 3.17 µM.

What about the TGI (UACC-62 melanoma) of the same compound?
The TGI was 3.66 µM.

And the TGI (SF-295 CNS)?
The TGI was 5.85 µM.

And the TGI (SK-MEL-2 melanoma)?
The TGI was 5.64 µM.

For `O=C1CCCC(O)=C1SC1=C(O)CCCC1=O`, which TGI (COLO 205 colon) is on record?
The TGI was over 100 µM.

What about the TGI (OVCAR-3 ovarian) of the same compound?
Its TGI is over 100 µM.

What about the TGI (RPMI-8226 leukemia) of the same compound?
The TGI was over 100 µM.

And the TGI (UACC-62 melanoma)?
Its TGI is over 100 µM.

What about the TGI (SF-295 CNS) of the same compound?
The TGI was over 100 µM.

What about the TGI (SK-MEL-2 melanoma) of the same compound?
Its TGI is over 100 µM.

And the TGI (K-562 leukemia)?
Its TGI is over 100 µM.

What about the TGI (SK-OV-3 ovarian) of the same compound?
Its TGI is over 100 µM.

Which GI50 (COLO 205 colon) does the source give for `COc1ccc(-c2nnc(SCC(=O)Nc3ccc(C(=O)/C=C/c4cc(OC)c(OC)c(OC)c4)cc3)n2-c2ccccc2)cc1OC` here?
The GI50 was over 10 µM.

And the TGI (COLO 205 colon)?
Its TGI is over 10 µM.

And the GI50 (OVCAR-3 ovarian)?
The GI50 was 3.18 µM.

What about the TGI (OVCAR-3 ovarian) of the same compound?
Its TGI is over 10 µM.

And the GI50 (RPMI-8226 leukemia)?
The GI50 was 0.387 µM.

And the TGI (RPMI-8226 leukemia)?
Its TGI is 5.73 µM.

What about the GI50 (UACC-62 melanoma) of the same compound?
The GI50 was 6.4 µM.

What about the TGI (UACC-62 melanoma) of the same compound?
Its TGI is over 10 µM.

What about the GI50 (MDA-MB-435) of the same compound?
Its GI50 is 1.77 µM.

And the TGI (MDA-MB-435)?
The TGI was 9.91 µM.

What about the GI50 (SF-295 CNS) of the same compound?
Its GI50 is over 10 µM.

And the TGI (SF-295 CNS)?
Its TGI is over 10 µM.

And the GI50 (SK-MEL-2 melanoma)?
The GI50 was over 10 µM.

What about the TGI (SK-MEL-2 melanoma) of the same compound?
Its TGI is over 10 µM.

What about the GI50 (K-562 leukemia) of the same compound?
The GI50 was 4.92 µM.

What about the TGI (K-562 leukemia) of the same compound?
Its TGI is over 10 µM.

What about the GI50 (SK-OV-3 ovarian) of the same compound?
Its GI50 is 6.06 µM.

And the TGI (SK-OV-3 ovarian)?
Its TGI is over 10 µM.

Reference: PubChem BioAssay (NCI)
